Values quoted from earlier work, collected in patent US11081240B2, “Methods for treatment of hypertension with an angiotensin II receptor blocker pharmaceutical composition” (AstraZeneca UK Limited, priority 2018, dated 2021).

What was measured:
[1] = co-administration of a potassium supplement with a single oral dose
[2] = administered with a lithium medication
[3] = treatment of hypertension; at least 5 double-blind, placebo-controlled, randomized studies

- effect of a potassium supplement on the pharmacokinetics of the drug [1]: no significant effect
SMILES: CCOc1nc2cccc(C(=O)OCc3oc(=O)oc3C)c2n1Cc1ccc(-c2ccccc2-c2noc(=O)[nH]2)cc1 [azilsartan medoxomil]
- serum lithium concentrations / lithium toxicity on co-administration [2]: increases in the serum lithium concentrations and/or lithium toxicity have been observed
- efficacy to lower blood pressure [3]: has been demonstrated
